From patent US8293772B2, “Triazole substituted aminobenzophenone compounds” (Leo Pharma A/S, priority 2004, dated 2012)

What was measured:
IL-1β = experiment: Inhibition of IL-1β secretion in LPS stimulated peripheral blood mononuclear cells; assay type: cell-based; settings: LPS stimulated human PBMC, 18 hours, ELISA; read-out: The median inhibition concentration (IC50, nM) of IL-1β
Procedure: (§1) To study the effect of compounds of the present invention in vitro, the inhibition of IL-1β and TNF-α secretion was determined using the following procedure:
(§2) Cytokine production was measured in the media from lipopolysaccharide (LPS) stimulated peripheral blood mononuclear cells. The mononuclear cells were isolated from human peripheral blood by Lymphoprep® (Nycomed, Norway) fractionation and suspended in RPMI 1640 (growth medium) with foetal calf serum (FCS, 2%), at a concentration of 5×10^5 cells/ml. The cells were incubated in 24-well tissue culture plates in 1 ml aliquots. Test compounds were dissolved in dimethylsulfoxide (DMSO, 10 mM) and were diluted with the medium. Compounds were added to the cells for 30 minutes, then LPS ([…] final concentration) was added. The plates were incubated for 18 hours, and the concentration of IL-1β and TNF-α in the medium was determined by enzyme-linked immunosorbent assays. The median inhibitory concentrations (IC50) of the compounds were calculated.

TNF-α [1] = experiment: Inhibition of TNF-α secretion in LPS stimulated peripheral blood mononuclear cells; assay type: cell-based; settings: LPS stimulated human PBMC, 18 hours, ELISA; read-out: The median inhibition concentration (IC50, nM) of TNF-α
Procedure: as §1, §2

TNF-α [2] = experiment: In vivo screening model of LPS induced TNF-α response in mice; settings: Mus musculus, po, 1 mg/kg p.o., 1 hour prior to LPS, plasma TNF-α 80-90 minutes after LPS, read-out: In vivo inhibition of LPS induced TNF-α production (in %)
Procedure: In Vivo Screening Model of LPS Induced TNF-α Response in Mice
To study the effect of compounds of the present invention in vivo, an in vivo screening model of LPS induced TNF-α response in mice was set up as follows: Groups of 6 mice (C3H/HeN, female, about 8 weeks (20 g), Bomholtgaard) were dosed with test compounds in suspension vehicle 1 hour prior to LPS administration (LPS from E. coli 055:B5, L-4005, Sigma). At time 0, the mice were dosed ip with 1.0 mg LPS/kg. After anesthetization with Hypnorm/Dormicum, the mice were bled from the periorbital venous plexus 80-90 minutes after LPS administration. The blood samples were sampled in EDTA stabilised tubes and centrifuged at 4000 rpm for 10 minutes at 4° C. The plasma level of TNF-α was analysed by ELISA. Compound 156 of WO 98/32730 was used as reference compound. The plasma level of TNF-α was determined using a sandwich ELISA. Microtiter plates were coated with a monoclonal antibody against mouse TNF-α, washed and blocked with a casein buffer. Samples of mouse TNF-α recombinant standards were added to the wells of the microtiter plates and incubated. All standards were tested in triplicate, all plasma samples in single. After sample and standard incubation, the plates were washed and incubated with biotinylated polyclonal secondary antibody against mouse TNF-α and washed. Enzyme conjugate was added to all wells and incubated. Substrate was added and the enzyme/substrate reaction stopped after 15 minutes at room temperature with 1M H2SO4. The colour development (OD) was measured at 450 nm on an ELISA reader and the background OD at 620 nm was subtracted. […] The results of the tested compounds are indicated as a percentage inhibition compared to an LPS treated control group. Compounds were tested at 1 mg/kg (p.o.). The Mann-Whitney test was used to compare drug treated groups to the LPS treated control group (p<0.05).

Row | Structure (SMILES) | IC50 (IL-1β) [nM] | IC50 (TNF-α [1]) [nM] | inhibition in vivo at 1 mg/kg (TNF-α [2]) [%]
1 | Cc1ccccc1Nc1ccc(C(=O)c2cc(-n3cc(CCO)nn3)ccc2C)c(Cl)c1 [Compound 117, (2-Chloro-4-o-tolylamino-phenyl)-{5-[4-(2-hydroxy-ethyl)-[1,2,3]triazol-1-yl]-2-methyl-phenyl}-methanone] | 1.6 | 1.1 | 
2 | Cc1ccc(-n2cc(CCO)nn2)cc1C(=O)c1ccc(Nc2ccc(F)cc2Cl)cc1Cl [Compound 118, [2-Chloro-4-(2-chloro-4-fluoro-phenylamino)-phenyl]-{5-[4-(2-hydroxy-ethyl)-[1,2,3]triazol-1-yl]-2-methyl-phenyl}-methanone] | 1.3 | 0.9 | 
3 | Cc1ccc(-n2cc(C(C)(C)O)nn2)cc1C(=O)c1ccc(Nc2ccc(F)cc2F)cc1Cl [Compound 129, [2-Chloro-4-(2,4-difluoro-phenylamino)-phenyl]-{5-[4-(1-hydroxy-1-methyl-ethyl)-[1,2,3]triazol-1-yl]-2-methyl-phenyl}-methanone] |  | 1.4 | 83
4 | CC(=O)c1cn(-c2ccc(C)c(C(=O)c3ccc(Nc4ccc(F)cc4F)cc3Cl)c2)nn1 [Compound 130, 1-(1-{3-[2-Chloro-4-(2,4-difluoro-phenylamino)-benzoyl]-4-methyl-phenyl}-1H-[1,2,3]triazol-4-yl)-ethanone] | 1.3 | 0.6 | 
5 | Cc1ccc(-n2cc(CNC(N)=O)nn2)cc1C(=O)c1ccc(Nc2ccc(F)cc2F)cc1Cl [Compound 137, (1-{3-[2-Chloro-4-(2,4-difluoro-phenylamino)-benzoyl]-4-methyl-phenyl}-1H-[1,2,3]triazol-4-ylmethyl)-urea] | 1 | 0.3 | 
6 | Cc1ccc(-n2cc(CCN3CCOCC3)nn2)cc1C(=O)c1ccc(Nc2ccc(F)cc2F)cc1Cl [Compound 138, [2-Chloro-4-(2,4-difluoro-phenylamino)-phenyl]-{2-methyl-5-[4-(2-morpholin-4-yl-ethyl)-[1,2,3]triazol-1-yl]-phenyl}-methanone] | 3.2 | 2 | 
7 | Cc1ccc(-n2cc(CCN3CCN(C)CC3)nn2)cc1C(=O)c1ccc(Nc2ccc(F)cc2F)cc1Cl [Compound 139, [2-Chloro-4-(2,4-difluoro-phenylamino)-phenyl]-(2-methyl-5-{4-[2-(4-methyl-piperazin-1-yl)-ethyl]-[1,2,3]triazol-1-yl}-phenyl)-methanone] | 1.6 | 0.5 | 
8 | CCN(CC)CCc1cn(-c2ccc(C)c(C(=O)c3ccc(Nc4ccc(F)cc4F)cc3Cl)c2)nn1 [Compound 140, [2-Chloro-4-(2,4-difluoro-phenylamino)-phenyl]-{5-[4-(2-diethylamino-ethyl)-[1,2,3]triazol-1-yl]-2-methyl-phenyl}-methanone] | 2 | 0.8 | 
9 | Cc1ccc(-n2cc(CCNCCO)nn2)cc1C(=O)c1ccc(Nc2ccc(F)cc2F)cc1Cl [Compound 141, [2-Chloro-4-(2,4-difluoro-phenylamino)-phenyl]-(5-{4-[2-(2-hydroxy-ethylamino)-ethyl]-[1,2,3]triazol-1-yl}-2-methyl-phenyl)-methanone] | 0.6 | 0.6 | 
10 | CCCNCCc1cn(-c2ccc(C)c(C(=O)c3ccc(Nc4ccc(F)cc4F)cc3Cl)c2)nn1 [Compound 142, [2-Chloro-4-(2,4-difluoro-phenylamino)-phenyl]-{2-methyl-5-[4-(2-propylamino-ethyl)-[1,2,3]triazol-1-yl]-phenyl}-methanone] | 1 | 0.8 | 
11 | Cc1cc(F)ccc1Nc1ccc(C(=O)c2cc(-n3cc(CCO)nn3)ccc2C)c(Cl)c1 [Compound 143, [2-Chloro-4-(4-fluoro-2-methyl-phenylamino)-phenyl]-{5-[4-(2-hydroxy-ethyl)-[1,2,3]triazol-1-yl]-2-methyl-phenyl}-methanone] | 4 | 1 | 
12 | Cc1cc(Cl)ccc1Nc1ccc(C(=O)c2cc(-n3cc(CCO)nn3)ccc2C)c(Cl)c1 [Compound 145, [2-Chloro-4-(4-chloro-2-methyl-phenylamino)-phenyl]-{5-[4-(2-hydroxy-ethyl)-[1,2,3]triazol-1-yl]-2-methyl-phenyl}-methanone] | 5 | 2 | 

The next lines start with results.

Row | IC50 (IL-1β) [nM] | IC50 (TNF-α [1]) [nM] | Structure (SMILES) | inhibition in vivo at 1 mg/kg (TNF-α [2]) [%]
13 | 0.6 | 0.5 | Cc1ccc(-c2cn(CCCO)nn2)cc1C(=O)c1ccc(Nc2ccc(F)cc2F)cc1Cl [Compound 104, [2-Chloro-4-(2,4-difluoro-phenylamino)-phenyl]-{5-[1-(3-hydroxy-propyl)-1H-[1,2,3]triazol-4-yl]-2-methyl-phenyl}-methanone] | 90
14 |  | 1.4 | Cc1ccc(-c2cn(CC3COC(C)(C)O3)nn2)cc1C(=O)c1ccc(Nc2ccc(F)cc2F)cc1Cl (centres unmarked) [Compound 105, [2-Chloro-4-(2,4-difluoro-phenylamino)-phenyl]-{5-[1-(2,2-dimethyl-[1,3]dioxolan-4-ylmethyl)-1H-[1,2,3]triazol-4-yl]-2-methyl-phenyl}-methanone] | 
15 | 0.7 | 0.5 | Cc1ccc(-c2cn(CC(O)CO)nn2)cc1C(=O)c1ccc(Nc2ccc(F)cc2F)cc1Cl (centres unmarked) [Compound 106, [2-Chloro-4-(2,4-difluoro-phenylamino)-phenyl]-{5-[1-(2,3-dihydroxy-propyl)-1H-[1,2,3]triazol-4-yl]-2-methyl-phenyl}-methanone] | 98
16 | 0.8 | 0.5 | Cc1ccc(-c2cn(CC(N)=O)nn2)cc1C(=O)c1ccc(Nc2ccc(F)cc2F)cc1Cl [Compound 107, 2-(4-{3-[2-Chloro-4-(2,4-difluoro-phenylamino)-benzoyl]-4-methyl-phenyl}-[1,2,3]triazol-1-yl)-acetamide] | 91
17 | 1.3 | 0.7 | Cc1ccc(-c2cn(CCCS(N)(=O)=O)nn2)cc1C(=O)c1ccc(Nc2ccc(F)cc2F)cc1Cl [Compound 108, 3-(4-{3-[2-Chloro-4-(2,4-difluoro-phenylamino)-benzoyl]-4-methyl-phenyl}-[1,2,3]triazol-1-yl)-propane-1-sulfonic acid amide] | 78
18 | 6.3 | 3.6 | CCOC(=O)Cn1cc(-c2ccc(C)c(C(=O)c3ccc(Nc4ccc(F)cc4F)cc3Cl)c2)nn1 [Compound 110, (4-{3-[2-Chloro-4-(2,4-difluoro-phenylamino)-benzoyl]-4-methyl-phenyl}-[1,2,3]triazol-1-yl)-acetic acid ethyl ester] | 
19 | 6.3 | 0.6 | Cc1ccc(-c2cn(CC(=O)NC(C)(C)CO)nn2)cc1C(=O)c1ccc(Nc2ccc(F)cc2F)cc1Cl [Compound 113, 2-(4-{3-[2-Chloro-4-(2,4-difluoro-phenylamino)-benzoyl]-4-methyl-phenyl}-[1,2,3]triazol-1-yl)-N-(2-hydroxy-1,1-dimethyl-ethyl)-acetamide] | 
20 | 5 | 0.8 | COc1ccc(-c2cn(CCO)nn2)cc1C(=O)c1ccc(Nc2ccc(F)cc2F)cc1Cl [Compound 120, [2-Chloro-4-(2,4-difluoro-phenylamino)-phenyl]-{5-[1-(2-hydroxy-ethyl)-1H-[1,2,3]triazol-4-yl]-2-methoxy-phenyl}-methanone] | 
21 |  | 1 | Cc1ccc(-n2cc(CCO)nn2)cc1C(=O)c1ccc(Nc2ccc(F)cc2F)cc1Cl [Compound 128, [2-Chloro-4-(2,4-difluoro-phenylamino)-phenyl]-{5-[4-(2-hydroxy-ethyl)-[1,2,3]triazol-1-yl]-2-methyl-phenyl}-methanone] | 95
22 | 1.6 | 1.3 | Cc1ccc(-n2cc(CCN)nn2)cc1C(=O)c1ccc(Nc2ccc(F)cc2F)cc1Cl [Compound 136, {5-[4-(2-Amino-ethyl)-[1,2,3]triazol-1-yl]-2-methyl-phenyl}-[2-chloro-4-(2,4-difluoro-phenylamino)-phenyl]-methanone] | 
